Laboratory results: ChEMBL document CHEMBL1201862, “PubChem BioAssay data set” (2004)
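Briefly, cells in 96-well plates were exposed to five compound concentrations for 48 h, and endpoints were estimated by linear interpolation. GI50: concentration for 50% inhibition of growth.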 Active and inactive are the calls of the source. No stated cut-off is given here; in the data, active = GI50 up to about 1.1 µM and inactive = higher.

What was measured:
Assay in all cases: NCI anticancer screen, dose series, 48 h
RPMI-8226 = tested on: RPMI-8226
COLO 205 = tested on: COLO 205
MDA-N = tested on: MDA-N
786-0 = tested on: 786-0
ACHN = tested on: ACHN
HT-29 = tested on: HT-29
SK-MEL-2 = tested on: SK-MEL-2
M14 = tested on: M14
U-251 = tested on: U-251
A549 = tested on: A549
DU-145 = tested on: DU-145
NCI-H522 = tested on: NCI-H522
SF-295 = tested on: SF-295
NCI-H460 = tested on: NCI-H460
MDA-MB-435 = tested on: MDA-MB-435
SF-268 = tested on: SF-268
OVCAR-8 = tested on: OVCAR-8
OVCAR-4 = tested on: OVCAR-4

SMILES: N#C[C@H](C(=O)c1ccccc1F)c1nc2ccccc2s1
- GI50 (RPMI-8226): 22.5 µM (inactive)
- GI50 (COLO 205): 23.7 µM (inactive)
- GI50 (MDA-N): 38.3 µM (inactive)
- GI50 (786-0): 31.2 µM (inactive)
- GI50 (ACHN): 49.1 µM (inactive)
- GI50 (HT-29): 28.1 µM (inactive)
- GI50 (SK-MEL-2): 16.6 µM (inactive)
- GI50 (M14): 21.8 µM (inactive)
- GI50 (U-251): 33.3 µM (inactive)
- GI50 (A549): 29 µM (inactive)
- GI50 (DU-145): 42.6 µM (inactive)
- GI50 (NCI-H522): 15.5 µM (inactive)
- GI50 (SF-295): 16.1 µM (inactive)
- GI50 (NCI-H460): 28.9 µM (inactive)
- GI50 (MDA-MB-435): 39.8 µM (inactive)
- GI50 (SF-268): 26.9 µM (inactive)
- GI50 (OVCAR-8): 25.1 µM (inactive)

SMILES: O=[N+]([O-])c1ccc2[nH]ncc2c1Cl
- GI50 (RPMI-8226): 20.1 µM (inactive)
- GI50 (COLO 205): 13.4 µM (inactive)
- GI50 (MDA-N): 16.1 µM (inactive)
- GI50 (786-0): 36.3 µM (inactive)
- GI50 (ACHN): 24.7 µM (inactive)
- GI50 (HT-29): 17.9 µM (inactive)
- GI50 (SK-MEL-2): 20.2 µM (inactive)
- GI50 (U-251): 42.5 µM (inactive)
- GI50 (A549): 45 µM (inactive)
- GI50 (DU-145): 16.6 µM (inactive)
- GI50 (NCI-H522): 3.74 µM (inactive)
- GI50 (OVCAR-4): 26.8 µM (inactive)
- GI50 (SF-295): 86.3 µM (inactive)
- GI50 (NCI-H460): 33.1 µM (inactive)
- GI50 (MDA-MB-435): 36.1 µM (inactive)
- GI50 (OVCAR-8): 27.5 µM (inactive)

SMILES: CCOc1cc2c(cc1O)/C(=N\O)C[C@@H]1[C@@H]2CC[C@]2(C)[C@@H](O)CC[C@@H]12
- GI50 (RPMI-8226): 0.0238 µM (active)
- GI50 (COLO 205): 8.79 µM (inactive)
- GI50 (MDA-N): 0.0123 µM (active)
- GI50 (786-0): < 0.0208 µM (active)
- GI50 (ACHN): 0.126 µM (active)
- GI50 (HT-29): 6.71 µM (inactive)
- GI50 (M14): 0.0144 µM (active)
- GI50 (U-251): 0.018 µM (active)
- GI50 (A549): 0.0521 µM (active)
- GI50 (DU-145): < 0.0197 µM (active)
- GI50 (NCI-H522): < 0.0182 µM (active)
- GI50 (OVCAR-4): 6.34 µM (inactive)
- GI50 (NCI-H460): < 0.0198 µM (active)
- GI50 (MDA-MB-435): 0.011 µM (active)
- GI50 (SF-268): < 0.031 µM (active)
- GI50 (OVCAR-8): < 0.028 µM (active)

SMILES: COc1ccc(/N=C2\C(=N/c3ccc(OC)cc3)N(c3ccc(N(C)C)cc3)C(=S)N2c2ccc(OC)cc2)cc1
- GI50 (RPMI-8226): 0.0532 µM (active)
- GI50 (COLO 205): > 100 µM (inactive)
- GI50 (MDA-N): > 100 µM (inactive)
- GI50 (786-0): 0.767 µM (active)
- GI50 (ACHN): > 100 µM (inactive)
- GI50 (HT-29): > 100 µM (inactive)
- GI50 (SK-MEL-2): > 100 µM (inactive)
- GI50 (M14): > 100 µM (inactive)
- GI50 (A549): > 100 µM (inactive)
- GI50 (DU-145): > 100 µM (inactive)
- GI50 (NCI-H522): > 100 µM (inactive)
- GI50 (OVCAR-4): > 100 µM (inactive)
- GI50 (SF-295): 0.0518 µM (active)
- GI50 (NCI-H460): 10.9 µM (inactive)
- GI50 (MDA-MB-435): > 100 µM (inactive)
- GI50 (SF-268): > 100 µM (inactive)
- GI50 (OVCAR-8): > 37.2 µM (inactive)

SMILES: COc1c(O)cc(/C=C/c2cc(O)cc3c2[C@@]2(C(=O)O3)c3c(O)cc(O)cc3OC2c2cccc(O)c2)cc1O (some centres undefined)
- GI50 (RPMI-8226): 14.7 µM (inactive)
- GI50 (COLO 205): 41.2 µM (inactive)
- GI50 (MDA-N): 39.5 µM (inactive)
- GI50 (786-0): 68.7 µM (inactive)
- GI50 (ACHN): 27.4 µM (inactive)
- GI50 (HT-29): 30.5 µM (inactive)
- GI50 (SK-MEL-2): 94 µM (inactive)
- GI50 (M14): 95.3 µM (inactive)
- GI50 (U-251): 41.4 µM (inactive)
- GI50 (A549): > 100 µM (inactive)
- GI50 (DU-145): 72.1 µM (inactive)
- GI50 (NCI-H522): 34.8 µM (inactive)
- GI50 (OVCAR-4): 19.6 µM (inactive)
- GI50 (NCI-H460): 11.3 µM (inactive)
- GI50 (MDA-MB-435): 54.3 µM (inactive)
- GI50 (SF-268): 62.4 µM (inactive)
- GI50 (OVCAR-8): 23.7 µM (inactive)

SMILES: O=P1(O)c2ccccc2CCc2ccccc21
- GI50 (RPMI-8226): > 100 µM (inactive)
- GI50 (COLO 205): > 100 µM (inactive)
- GI50 (MDA-N): > 100 µM (inactive)
- GI50 (786-0): > 100 µM (inactive)
- GI50 (SK-MEL-2): > 100 µM (inactive)
- GI50 (M14): > 100 µM (inactive)
- GI50 (A549): > 100 µM (inactive)
- GI50 (DU-145): > 100 µM (inactive)
- GI50 (NCI-H522): > 100 µM (inactive)
- GI50 (SF-295): > 100 µM (inactive)
- GI50 (MDA-MB-435): > 100 µM (inactive)
- GI50 (SF-268): > 100 µM (inactive)
- GI50 (OVCAR-8): > 100 µM (inactive)

SMILES: O=C(NCCO)c1c(O)c2ccccc2[nH]c1=O
- GI50 (RPMI-8226): > 100 µM (inactive)
- GI50 (COLO 205): > 100 µM (inactive)
- GI50 (MDA-N): > 100 µM (inactive)
- GI50 (786-0): > 100 µM (inactive)
- GI50 (ACHN): > 100 µM (inactive)
- GI50 (HT-29): > 100 µM (inactive)
- GI50 (U-251): > 100 µM (inactive)
- GI50 (A549): > 100 µM (inactive)
- GI50 (DU-145): > 100 µM (inactive)
- GI50 (NCI-H522): > 100 µM (inactive)
- GI50 (OVCAR-4): > 100 µM (inactive)
- GI50 (SF-295): > 100 µM (inactive)
- GI50 (NCI-H460): > 100 µM (inactive)
- GI50 (MDA-MB-435): > 100 µM (inactive)
- GI50 (SF-268): > 100 µM (inactive)
- GI50 (OVCAR-8): > 100 µM (inactive)

SMILES: CCOC(=O)C(C)(C(=O)OCC)/C(Cl)=C\Cl
- GI50 (RPMI-8226): > 100 µM (inactive)
- GI50 (COLO 205): > 100 µM (inactive)
- GI50 (MDA-N): > 100 µM (inactive)
- GI50 (786-0): > 100 µM (inactive)
- GI50 (ACHN): > 100 µM (inactive)
- GI50 (HT-29): > 100 µM (inactive)
- GI50 (M14): > 100 µM (inactive)
- GI50 (A549): 33.7 µM (inactive)
- GI50 (DU-145): > 100 µM (inactive)
- GI50 (NCI-H522): > 100 µM (inactive)
- GI50 (OVCAR-4): > 100 µM (inactive)
- GI50 (SF-295): > 100 µM (inactive)
- GI50 (NCI-H460): 22.6 µM (inactive)
- GI50 (MDA-MB-435): > 100 µM (inactive)
- GI50 (SF-268): > 100 µM (inactive)
- GI50 (OVCAR-8): > 100 µM (inactive)

SMILES: Cc1cc(S(=O)(=O)NC2=Nc3cccc4cccc(c34)N2)c(S)cc1Cl
- GI50 (RPMI-8226): > 100 µM (inactive)
- GI50 (COLO 205): 84.7 µM (inactive)
- GI50 (MDA-N): 0.316 µM (active)
- GI50 (786-0): 84.5 µM (inactive)
- GI50 (ACHN): > 100 µM (inactive)
- GI50 (SK-MEL-2): > 100 µM (inactive)
- GI50 (M14): 65.2 µM (inactive)
- GI50 (U-251): 50 µM (inactive)
- GI50 (A549): 55.1 µM (inactive)
- GI50 (DU-145): > 100 µM (inactive)
- GI50 (NCI-H522): > 100 µM (inactive)
- GI50 (OVCAR-4): 85.9 µM (inactive)
- GI50 (SF-295): 39.5 µM (inactive)
- GI50 (NCI-H460): 55.6 µM (inactive)
- GI50 (MDA-MB-435): 83.4 µM (inactive)
- GI50 (SF-268): > 100 µM (inactive)
- GI50 (OVCAR-8): > 100 µM (inactive)

SMILES: COc1ccc2c(c1)CCc1[nH]c3ccccc3c1CCCC2
- GI50 (RPMI-8226): > 10 µM (inactive)
- GI50 (COLO 205): > 10 µM (inactive)
- GI50 (MDA-N): > 10 µM (inactive)
- GI50 (786-0): > 10 µM (inactive)
- GI50 (ACHN): > 10 µM (inactive)
- GI50 (HT-29): > 10 µM (inactive)
- GI50 (M14): > 10 µM (inactive)
- GI50 (U-251): > 10 µM (inactive)
- GI50 (A549): > 10 µM (inactive)
- GI50 (DU-145): > 10 µM (inactive)
- GI50 (NCI-H522): > 10 µM (inactive)
- GI50 (OVCAR-4): > 10 µM (inactive)
- GI50 (SF-295): > 10 µM (inactive)
- GI50 (MDA-MB-435): > 10 µM (inactive)
- GI50 (SF-268): > 10 µM (inactive)
- GI50 (OVCAR-8): > 10 µM (inactive)

SMILES: COc1nc2sc3c(c2c(=O)n1CCCSSCCCn1c(OC)nc2sc4c(c2c1=O)CCCC4)CCCC3
- GI50 (RPMI-8226): 6.92 µM (inactive)
- GI50 (COLO 205): > 100 µM (inactive)
- GI50 (MDA-N): > 100 µM (inactive)
- GI50 (786-0): > 100 µM (inactive)
- GI50 (ACHN): > 100 µM (inactive)
- GI50 (HT-29): > 100 µM (inactive)
- GI50 (SK-MEL-2): > 100 µM (inactive)
- GI50 (M14): > 100 µM (inactive)
- GI50 (U-251): > 100 µM (inactive)
- GI50 (A549): > 100 µM (inactive)
- GI50 (DU-145): > 100 µM (inactive)
- GI50 (NCI-H522): > 100 µM (inactive)
- GI50 (OVCAR-4): > 100 µM (inactive)
- GI50 (SF-295): > 100 µM (inactive)
- GI50 (MDA-MB-435): > 100 µM (inactive)
- GI50 (OVCAR-8): > 100 µM (inactive)

SMILES: Cc1n[nH]c(=O)n1Nc1ccccc1
- GI50 (RPMI-8226): > 100 µM (inactive)
- GI50 (COLO 205): > 100 µM (inactive)
- GI50 (MDA-N): > 100 µM (inactive)
- GI50 (786-0): > 100 µM (inactive)
- GI50 (ACHN): > 100 µM (inactive)
- GI50 (HT-29): > 100 µM (inactive)
- GI50 (M14): > 100 µM (inactive)
- GI50 (U-251): > 100 µM (inactive)
- GI50 (A549): > 100 µM (inactive)
- GI50 (DU-145): > 100 µM (inactive)
- GI50 (NCI-H522): > 100 µM (inactive)
- GI50 (OVCAR-4): > 100 µM (inactive)
- GI50 (SF-295): > 100 µM (inactive)
- GI50 (NCI-H460): > 100 µM (inactive)
- GI50 (MDA-MB-435): > 100 µM (inactive)
- GI50 (SF-268): > 100 µM (inactive)
- GI50 (OVCAR-8): > 100 µM (inactive)
